Experimental data reported in publication PMC7460285, “OctoPartenopin: Identification and Preliminary Characterization of a Novel Antimicrobial Peptide from the Suckers of Octopus vulgaris” (Marine Drugs, 2020).
Ends that are not written are not given here.

Experiments:
[1] = system: S. aureus ATCC 6538; assay: Agar diffusion assay (inhibition zone diameter); type: cell-based, Staphylococcus aureus; design: key: R: Resistant; I: Intermediate; S: Sensitive; settings: 5 μg ampicillin, 5 μg gentamicin, 37 °C, 24 h
Procedure: (§1) Microorganisms used for this study were as follows: Staphylococcus aureus ATCC 6538, Pseudomonas aeruginosa ATCC 9027, and Candida albicans ATCC 90028. Microorganisms were routinely cultured in tryptic soy broth (TSB) supplemented with 0.1% glucose, at 37 °C, for 18 h prior to experiments, and corresponding cell concentration was adjusted to 10^6 CFU mL^−1 by optical density at 600 nm. Stock cultures were maintained in trypticase soy agar (TSA) and Sabouraud dextrose agar containing glycerol at −80 °C.
(§2) For antimicrobial testing, the agar disc diffusion method was used and the antimicrobial susceptibility was detected by analyzing the inhibition zones, measured and compared according to the standards set by the CLSI [106], which classify the strains as sensitive (S), intermediate (I), or resistant (R). All tests were performed in duplicate, and the antimicrobial activity was expressed as the mean of inhibition diameters (mm, ±standard deviation, SD) produced by the extracts.
(§3) Microorganisms were cultivated overnight and a suspension containing 10^6 CFU mL^−1 was spread on plates containing TSA or Sabouraud agar. Holes of approximately 5 × 3 mm were made in the agar and were filled with 30 μL of the extract stock solution (1 mg/mL). After incubation at 37 °C for 24 h, inhibition zones were measured in millimeters and compared to the controls. […]

[2] = system: P. aeruginosa ATCC 9027; assay: Agar diffusion assay (inhibition zone diameter); type: cell-based, Pseudomonas aeruginosa; design: key: R: Resistant; I: Intermediate; S: Sensitive; settings: 5 μg ampicillin, 5 μg gentamicin, 37 °C, 24 h
Procedure: as §1, §2, §3

[3] = system: C. albicans ATCC 90028; assay: Agar diffusion assay (inhibition zone diameter); type: cell-based, Candida albicans; design: key: R: Resistant; I: Intermediate; S: Sensitive; settings: 1 μg amphotericin B, 37 °C, 24 h
Procedure: as §1, §2, §3

[4] = system: P. aeruginosa ATCC 9027; assay: Broth microdilution MIC determination; type: cell-based, Pseudomonas aeruginosa; settings: 80% inhibition of growth in liquid medium (TSB), 37 °C, 18 h, mean of three replicates ± SD
Procedure: as §1, with “°C. The minimum inhibitory concentration (MIC) determination was conducted as described in our previous papers. Briefly, microbes were inoculated in TSB and incubated at 37 °C to the exponential phase. Then, the inoculum was diluted with fresh TSB to 10^6 CFU/mL, and 50 μL microbial dilutions were mixed with serial dilutions of fractions or peptides (50 μL) in 96-well microtiter plates.” for “°C.”

[5] = system: mature biofilms of S. aureus, P. aeruginosa, and C. albicans; assay: Mature biofilm eradication assay, crystal violet; type: cell-based; settings: preformed 24 h biofilm, peptide 10 to 80 μM for 24 h, 30 °C; for Dispersion (clearance) of mature biofilm biomass: strain and concentration not stated for the values (Figure 4)
Procedure: (§4) The microorganism’s ability to form biofilm was determined using the method previously described in our laboratory. Bacterial and fungal biofilm prevention and eradication assays were performed based on our published protocols. Synthetized peptides (P0–P4) were tested at sub-MIC concentrations ranging from 10 to 80 μM in triplicate in both assays. For the prevention of biofilm formation, diluted cultures of each strain were added to 96-well plates and incubated with peptides (at concentrations ranging from 10 to 80 μM) at 30 °C, for 24 h. For the eradication of mature biofilm, diluted cultures of C. albicans and two bacteria were added to 96-well plates and incubated at 30 °C. After 24 h, the planktonic cells and medium were aspirated from the wells and fresh medium was added to the well, followed by peptides at the same concentrations. Plates were incubated at 30 °C, for an additional 24 h. For both above mentioned assays, the planktonic cells and medium were aspirated at the end of the final incubation period, and wells were washed twice with PBS. The residual attached biofilms were fixed with 95% v/v ethanol per well and, after 20 min, plates were emptied and left to dry. Plates were stained for 15 min with 0.1% w/v crystal violet. Excess stain was then removed by rinsing the plate with PBS. The plates were allowed to dry, and the crystal violet-stained biofilm was solubilized with 200 μL of 30% v/v glacial acetic acid per well. The OD of each well was measured at 550 nm with a microplate reader. The same formula described above was used to quantify the biofilm biomass forming when the incubation was done with peptides or when remaining after incubation with peptides. The percentage of biofilm inhibition and eradication was determined by the formula: biofilm reduction % = OD control − OD sample/OD control × 100%.

[6] = system: S. aureus ATCC 6538; assay: Broth microdilution MIC determination; type: cell-based, Staphylococcus aureus; settings: 80% inhibition of growth in liquid medium (TSB), 37 °C, 18 h, mean of three replicates ± SD
Procedure: as §1, with “°C. The minimum inhibitory concentration (MIC) determination was conducted as described in our previous papers. Briefly, microbes were inoculated in TSB and incubated at 37 °C to the exponential phase. Then, the inoculum was diluted with fresh TSB to 10^6 CFU/mL, and 50 μL microbial dilutions were mixed with serial dilutions of fractions or peptides (50 μL) in 96-well microtiter plates.” for “°C.”

[7] = system: C. albicans ATCC 90028; assay: Broth microdilution MIC determination; type: cell-based, Candida albicans; settings: 80% inhibition of growth in liquid medium (TSB), 37 °C, 18 h, mean of three replicates ± SD
Procedure: as §1, with “°C. The minimum inhibitory concentration (MIC) determination was conducted as described in our previous papers. Briefly, microbes were inoculated in TSB and incubated at 37 °C to the exponential phase. Then, the inoculum was diluted with fresh TSB to 10^6 CFU/mL, and 50 μL microbial dilutions were mixed with serial dilutions of fractions or peptides (50 μL) in 96-well microtiter plates.” for “°C.”

[8] = system: C. albicans biofilm; type: cell-based, Candida albicans; settings: 24 h
Procedure: as §4, with “For both above mentioned assays, the planktonic cells and medium were aspirated at the end of the final incubation period, and wells were washed twice with PBS. The residual attached biofilms were fixed with 95% v/v ethanol per well and, after 20 min, plates were emptied and left to dry. Plates were stained for 15 min with 0.1% w/v crystal violet. Excess stain was then removed by rinsing the plate with PBS. The plates were allowed to dry, and the crystal violet-stained biofilm was solubilized with 200 μL of 30% v/v glacial acetic acid per well.” left out

Row | Molecule | MIC80 synthetized peptides [4] [µM] | Dispersion (clearance) of mature biofilm biomass [5] | MIC80 synthetized peptides [6] [µM] | MIC80 synthetized peptides [7] [µM] | also measured
1 | CC1(C)S[C@@H]2[C@H](NC(=O)[C@H](N)c3ccccc3)C(=O)N2[C@H]1C(=O)O [AMP, Ampicillin] |  |  |  |  | Susceptibility class to positive control (CLSI interpretative chart) [1]: S; Susceptibility class to positive control (CLSI interpretative chart) [2]: R
2 | C[C@@H]1[C@H](O)[C@@H](C)/C=C/C=C/C=C/C=C/C=C/C=C/C=C/[C@H](O[C@@H]2O[C@H](C)[C@@H](O)[C@H](N)[C@@H]2O)C[C@@H]2O[C@](O)(C[C@@H](O)C[C@@H](O)[C@H](O)CC[C@@H](O)C[C@@H](O)CC(=O)O[C@H]1C)C[C@H](O)[C@H]2C(=O)O [AMPH-B, amphotericin B] |  |  |  |  | Susceptibility class to positive control (CLSI interpretative chart) [3]: S
3 | CNC(C)C1CCC(N)C(OC2C(N)CC(N)C(OC3OCC(C)(O)C(NC)C3O)C2O)O1 (stereo not shown) [G, Gentamicin] |  |  |  |  | Susceptibility class to positive control (CLSI interpretative chart) [1]: S; Susceptibility class to positive control (CLSI interpretative chart) [2]: S
4 | AGTNK-NH2 [P0] | 200 ± 3 | about 70% | 150 ± 2 | 200 ± 3 | 
5 | EGQGVISLQAGTNK-NH2 [P3] | 50 ± 3 | ~80% | 80 ± 1 | 100 ± 4 | 
6 | GEGIIGLQAGTNKFASQIGMKIGAVRHIADIR-NH2 [P4] | 50 ± 2 |  | 80 ± 5 | 180 ± 5 | 
7 | QAGSNKGASQKGMS-NH2 [P2] | 50 ± 2 | ~90% | 50 ± 5 | 100 ± 3 | Inhibition rate of biofilm formation [8]: about 40%
8 | QAGTNK-NH2 [P1] | 100 ± 5 |  | 150 ± 3 | 200 ± 5 | Antibiofilm (eradication) activity, in words [5]: weakest antibiofilm activity
